Where two headings read alike, the source gives them in different places.
Columns and labels:
Assay type in all cases: cell-based
[1] = tested on: NCI-H522; test: Screening against cancer cell lines: NCI-H522 (Non-Small Cell Lung)
Source text: (§1) Screening of Benzamide Derivatives Against Cancer Cell Lines Tables 1 and 2 tabulate by way of example the results obtained for compounds (4) and (6).
(§2) 8 non-small cell lung cancer cell lines were screened against both compound (4) and MS275.

[2] = tested on: KM-12; test: Comparison test versus MS275: KM-12 (colon cancer); conditions: Homo sapiens, KM12, read-out: potency (quantity not named; values match GI50 of Table 1)
Source text: (§3) 6 colon cancer cell lines were screened against both compound (4) and MS275.

[3] = tested on: HCC-2998; test: Screening against cancer cell lines: HCC-2998 (Colon)
Source text: as §1, §3

[4] = tested on: colon cancer cell lines; test: Comparison test versus MS275: 6 colon cancer cell lines; conditions: in 3 cell lines of 6 colon cancer cell lines screened
Source text: as §3

[5] = tested on: UACC-257; test: Screening against cancer cell lines: UACC-257 (Melanoma)
Source text: as §1
(§4) 7 melanoma cancer cell lines were screened against both compound (4) and MS275.

[6] = tested on: cancer cell lines; test: Screening of benzamide derivatives against cancer cell lines (summary); conditions: summary of Tables 1 and 2
Source text: as §1

[7] = tested on: OVCAR-8; test: Screening against cancer cell lines: OVCAR-8 (Ovarian)
Source text: as §1

[8] = tested on: breast cancer cell lines; test: Comparison test versus MS275: 7 breast cancer cell lines; conditions: in 3 cell lines of 7 breast cancer cell lines screened
Source text: (§5) 7 breast cancer cell lines were screened against both compound (4) and MS275.

[9] = tested on: SR; test: Screening against cancer cell lines: SR (Leukaemia); conditions: Leukaemia
Source text: as §1

[10] = tested on: RPMI-8226; test: Screening against cancer cell lines: RPMI-8226 (Leukaemia)
Source text: as §1

[11] = tested on: RXF 393; test: Screening against cancer cell lines: RXF 393 (Renal)
Source text: as §1
(§6) 7 renal cancer cell lines were screened against both compound (4) and MS275.

[12] = tested on: ovarian cancer cell lines; test: Comparison test versus MS275: 6 ovarian cancer cell lines; conditions: in 3 cell lines of 6 ovarian cancer cell lines screened
Source text: (§7) 6 ovarian cancer cell lines were screened against both compound (4) and MS275.

[13] = tested on: SK-MEL-28; test: Screening against cancer cell lines: SK-MEL-28 (Melanoma)
Source text: as §1, §4

[14] = tested on: HCT-15; test: Screening against cancer cell lines: HCT-15 (Colon)
Source text: as §1, §3

[15] = tested on: IGROV1; test: Screening against cancer cell lines: IGROV1 (Ovarian)
Source text: as §1, §7

[16] = tested on: melanoma cancer cell lines; test: Comparison test versus MS275: 7 melanoma cancer cell lines; conditions: in 3 cell lines of 7 melanoma cancer cell lines screened
Source text: as §4

[17] = tested on: SN12C; test: Screening against cancer cell lines: SN12C (Renal)
Source text: as §1, §6

[18] = tested on: SK-OV-3; test: Comparison test versus MS275: SK-OV-3 (ovarian cancer); conditions: Homo sapiens, read-out: potency (quantity not named; values match GI50 of Table 1)
Source text: as §7

[19] = tested on: OVCAR-4; test: Comparison test versus MS275: OVCAR-4 (ovarian cancer); conditions: Homo sapiens, read-out: potency (quantity not named; values match GI50 of Table 1)
Source text: as §7

[20] = tested on: non-small cell lung cancer cell lines; test: Comparison test versus MS275: 8 non-small cell lung cancer cell lines; conditions: in 2 cell lines of 8 non-small cell lung cancer cell lines screened
Source text: as §2

[21] = tested on: NCI-H23; test: Screening against cancer cell lines: NCI-H23 (Non-Small Cell Lung)
Source text: as §1, §2

[22] = tested on: ACHN; test: Screening against cancer cell lines: ACHN (Renal)
Source text: as §1, §6

[23] = tested on: MDA-MB-435; test: Screening against cancer cell lines: MDA-MB-435 (Breast)
Source text: as §1, §5

[24] = tested on: UACC-62; test: Screening against cancer cell lines: UACC-62 (Melanoma)
Source text: as §1

[25] = tested on: NCI/ADR-RES; test: Screening against cancer cell lines: NCI/ADR-RES (Breast)
Source text: as §1, §5

[26] = tested on: 786-0; test: Comparison test versus MS275: 786-0 (renal cancer); conditions: Homo sapiens, read-out: potency (quantity not named; values match GI50 of Table 1)
Source text: as §6

[27] = tested on: LOX IMVI; test: Screening against cancer cell lines: LOX IMVI (Melanoma)
Source text: as §1, §4

[28] = Homo sapiens, Table 1, read-out: LC50 (the source's name)
[29] = Homo sapiens, Renal, Table 1, read-out: GI50
[30] = Homo sapiens, Renal, Table 1, read-out: LC50 (the source's name)
[31] = Homo sapiens, renal cancer, comparison versus MS275, read-out: potency (quantity not named; values match GI50 of Table 1)

## C=C(CN1CCc2ccccc2C1)c1ccc(C(=O)Nc2ccccc2N)cc1 [Compound (4), N-(2-Amino-phenyl)-4-[1-(3,4-dihydroisoquinolin-2(1H)-ylmethyl)vinyl]benzamide]
[1]; Homo sapiens, NCI-H522, Non-Small Cell Lung, Table 1, read-out: GI50
  GI50: 220 nM
[1]; Homo sapiens, NCI-H522, Non-Small Cell Lung, Table 1, read-out: LC50 (the source's name)
  CC50: 20800 nM
[1]; Homo sapiens, NCI-H522, non-small cell lung cancer, comparison versus MS275, read-out: potency (quantity not named; values match GI50 of Table 1)
  GI50: 220 nM
[1]; NCI-H522, Non-Small Cell Lung, Table 1
  TGI: 1400 nM
[2]
  GI50: 1150 nM
[3]; HCC-2998, Colon, Table 1
  TGI: 400 nM
[3]; Homo sapiens, HCC-2998, Colon, Table 1, read-out: GI50
  GI50: 90 nM
[3]; Homo sapiens, HCC-2998, Colon, Table 1, read-out: LC50 (the source's name)
  CC50: 2000 nM
[3]; Homo sapiens, HCC-2998, colon cancer, comparison versus MS275, read-out: potency (quantity not named; values match GI50 of Table 1)
  GI50: 90 nM
[4]
  potency over MS275: > 2 fold
[5]; Homo sapiens, UACC-257, Melanoma, Table 1, read-out: GI50
  GI50: 499 nM
[5]; Homo sapiens, UACC-257, Melanoma, Table 1, read-out: LC50 (the source's name)
  CC50: > 50000 nM
[5]; Homo sapiens, UACC-257, melanoma, comparison versus MS275, read-out: potency (quantity not named; values match GI50 of Table 1)
  GI50: 500 nM
[5]; UACC-257, Melanoma, Table 1
  TGI: 15500 nM
[6]
  activity against cancer cell lines (in words): potently inhibited
[7]; Homo sapiens, Table 1
  GI50: 768 nM
[7]; [28]
  CC50: > 50000 nM
[7]; Table 1
  TGI: 12500 nM
[8]
  potency over MS275: > 2 fold
[9]; Homo sapiens, Table 1, read-out: GI50
  GI50: 484 nM
[9]; [28]
  CC50: > 50000 nM
[9]; Table 1
  TGI: — (‘—’ indicates a concentration exceeding 50 μM.)
[10]; Homo sapiens, Table 1
  GI50: 510 nM
[10]; [28]
  CC50: > 50000 nM
[10]; Table 1
  TGI: — (‘—’ indicates a concentration exceeding 50 μM.)
[11]; Homo sapiens, RXF 393, Renal, Table 1, read-out: GI50
  GI50: 102 nM
[11]; Homo sapiens, RXF 393, Renal, Table 1, read-out: LC50 (the source's name)
  CC50: 46000 nM
[11]; Homo sapiens, RXF 393, renal cancer, comparison versus MS275, read-out: potency (quantity not named; values match GI50 of Table 1)
  GI50: 100 nM
[11]; RXF 393, Renal, Table 1
  TGI: 600 nM
[12]
  potency over MS275: > 2 fold
[13]; Homo sapiens, SK-MEL-28, Melanoma, Table 1, read-out: GI50
  GI50: 389 nM
[13]; Homo sapiens, SK-MEL-28, Melanoma, Table 1, read-out: LC50 (the source's name)
  CC50: > 50000 nM
[13]; Homo sapiens, SK-MEL-28, melanoma, comparison versus MS275, read-out: potency (quantity not named; values match GI50 of Table 1)
  GI50: 390 nM
[13]; SK-MEL-28, Melanoma, Table 1
  TGI: 6500 nM
[14]; HCT-15, Colon, Table 1
  TGI: 7800 nM
[14]; Homo sapiens, HCT-15, Colon, Table 1, read-out: GI50
  GI50: 836 nM
[14]; Homo sapiens, HCT-15, Colon, Table 1, read-out: LC50 (the source's name)
  CC50: > 50000 nM
[14]; Homo sapiens, HCT-15, colon cancer, comparison versus MS275, read-out: potency (quantity not named; values match GI50 of Table 1)
  GI50: 840 nM
[15]; Homo sapiens, IGROV-1, IGROV1, Ovarian, Table 1, read-out: GI50
  GI50: 245 nM
[15]; Homo sapiens, IGROV-1, IGROV1, Ovarian, Table 1, read-out: LC50 (the source's name)
  CC50: > 50000 nM
[15]; Homo sapiens, IGROV-1, IGROV1, ovarian cancer, comparison versus MS275, read-out: potency (quantity not named; values match GI50 of Table 1)
  GI50: 250 nM
[15]; IGROV1, Ovarian, Table 1
  TGI: 10500 nM
[16]
  potency over MS275: > 2 fold
[17]; [29]
  GI50: 629 nM
[17]; [30]
  CC50: 27000 nM
[17]; [31]
  GI50: 630 nM
[17]; Renal, Table 1
  TGI: 2700 nM
[18]
  GI50: 1080 nM
[19]
  GI50: 1910 nM
[20]
  potency over MS275: > 2 fold
[21]; Homo sapiens, NCI-H23, Non-Small Cell Lung, Table 1, read-out: GI50
  GI50: 178 nM
[21]; Homo sapiens, NCI-H23, Non-Small Cell Lung, Table 1, read-out: LC50 (the source's name)
  CC50: 11400 nM
[21]; Homo sapiens, NCI-H23, non-small cell lung cancer, comparison versus MS275, read-out: potency (quantity not named; values match GI50 of Table 1)
  GI50: 180 nM
[21]; NCI-H23, Non-Small Cell Lung, Table 1
  TGI: 1500 nM
[22]; [29]
  GI50: 844 nM
[22]; [30]
  CC50: 14400 nM
[22]; [31]
  GI50: 840 nM
[22]; Renal, Table 1
  TGI: 2800 nM
[23]; Homo sapiens, MDA-MB-435, Breast, Table 1, read-out: GI50
  GI50: 98 nM
[23]; Homo sapiens, MDA-MB-435, Breast, Table 1, read-out: LC50 (the source's name)
  CC50: ~4000 nM
[23]; Homo sapiens, MDA-MB-435, breast cancer, comparison versus MS275, read-out: potency (quantity not named; values match GI50 of Table 1)
  GI50: 90 nM
[23]; MDA-MB-435, Breast, Table 1
  TGI: 600 nM
[24]; Homo sapiens, Table 1
  GI50: 666 nM
[24]; [28]
  CC50: 20700 nM
[24]; Table 1
  TGI: 2900 nM
[25]; Breast, Table 1
  TGI: 2000 nM
[25]; Homo sapiens, Breast, Table 1, read-out: GI50
  GI50: 613 nM
[25]; Homo sapiens, Breast, Table 1, read-out: LC50 (the source's name)
  CC50: > 50000 nM
[25]; Homo sapiens, breast cancer, comparison versus MS275, read-out: potency (quantity not named; values match GI50 of Table 1)
  GI50: 610 nM
[26]
  GI50: 1050 nM
[27]; Homo sapiens, Melanoma, Table 1, read-out: GI50
  GI50: 99 nM
[27]; Homo sapiens, Melanoma, Table 1, read-out: LC50 (the source's name)
  CC50: 6400 nM
[27]; Homo sapiens, melanoma, comparison versus MS275, read-out: potency (quantity not named; values match GI50 of Table 1)
  GI50: 90 nM
[27]; Melanoma, Table 1
  TGI: 600 nM
